# Experimental data taken from article PMC7961380, “A Systematic Study of the In Vitro Pharmacokinetics and Estimated Human In Vivo Clearance of Indole and Indazole-3-Carboxamide Synthetic Cannabinoid Receptor Agonists Detected on the Illicit Drug Market” (Molecules, 2021).
# Where “and” joins values, the source holds several entries; their conditions need not be identical. Equal entries are not always repeated. Where two headings read alike, the source gives them in different places.
# Tests used:
# [1] = Chromatographic hydrophobicity index (CHI) log D at pH 7.4; settings: for chromatographic logD: reversed-phase HPLC, Acquity BEH C18 column
# Description: Chromatographic hydrophobicity index (CHI) log D samples (see below) were analysed using high-performance liquid chromatography (HPLC) with a Shimadzu Nexera X2 HPLC coupled to a Shimadzu SPD-30 MA photodiode array detector (PDA) (Shimadzu, Kyoto, Japan). […] The sample chamber was maintained at 25 °C. Gradient elution was performed, with mobile phase (MP) consisting of ammonium acetate in water (10 mM, pH 7.4) (MP A) and acetonitrile (MP B).
# A calibration mix of ten compounds at 10 µg mL^−1 in 1:1 (v/v) water:ACN was used (theophylline, phenyltetrazole, benzimidazole, colchicine, phenyltheophilline, acetophenone, indole, propiophenone, butyrophenone and valerophenone (all Sigma-Aldrich)). Test compounds were prepared at 0.25 mM in 1:1 (v/v) water:ACN. Samples (n = 2 for calibration standards; n = 1 for test compounds) were analysed using UPLC-PDA as described above. Retention times of calibration compounds are used to calculate retention factor (k), which is plotted against literature CHI values for each compound.
# Where tr is the retention time of the analyte and t0 is the retention time of an unretained compound
# Calculation of chromatographic hydrophobicity index (CHI)
# CHI = (𝑘 x slope) − intercept Eqn.4
# Where k is the retention factor of the analyte.
# Calculation of CHI Log D [1]
# Where CHI is the chromatographic hydrophobicity index obtained using Equation 4
# [2] = HLM, ref 14 (THJ-018, THJ-2201), 15 (NNEI, MN-18), 106 (NM-2201), 107 (BIM-2201), 108 (STS-135), 16 (AB-PINACA, 5F-AB-PINACA), 54 (5F-MDMB-PINACA), 69 (AB-FUBINACA), 17 (ADB-FUBINACA), 97 (FDU-PB-22, FUB-PB-22), cited from earlier work; for t1/2: 73 (AMB-PINACA, 5F-AMB-PINACA)
# [3] = Plasma protein binding by equilibrium dialysis; assay type: in vitro ADME, human; settings: human, pooled human plasma, pH 7.4, equilibrium dialysis 5 h, 37 °C
# [4] = Metabolic stability, pooled human liver microsome incubations; settings: for Predicted In Vivo Hepatic Clearance, CLH: from pHLM CLint, well-stirred model with plasma fu, Q 21 mL min^−1 kg^−1; for CLint scaled at 0.5 µM / half-life at 0.5 µM: human, microsomes; for CLint scaled at 0.5 µM: pH 7.4, Intrinsic clearance; for half-life at 0.5 µM: pH 7.4, T1/2 (min), pHLM 0.5 mg mL^−1, 0.5 µM, NADPH, 37 °C; for half-life at 0.5 µM / Microsomal Intrinsic Clearance, CLint micr: n ≥ 3 ± SD
# [5] = Short-term plasma stability with and without esterase inhibitors; settings: human, pH 7.4, Parent Compound Remaining (%), 3 h, 37 °C
# Description: The pooled plasma used for both plasma stability and plasma binding studies originated from 50 donors, collected as whole blood from donors in the United States at an FDA-approved collection center, processed into plasma by centrifugation and immediately frozen (Innovative Research; Novi, MI, USA) and purchased from Patricell (Nottingham, UK). […] Stock solutions were prepared in DMSO. […] For incubations without inhibitor an equivalent volume of DMSO was included. Plasma mixture was pre-incubated at 37 °C for 5 min. Test compounds (5 µM) and procaine (positive control, 50 µM) were added to pre-warmed plasma mixture containing inhibitors. Incubation volume was 1 mL. Samples were mixed and 80 µL was immediately sampled and quenched into 200 µL ACN spiked with donepezil (internal standard (IS), 50 ng mL^−1). […] Peak area ratio of analyte to IS was used to determine half-lives of test compounds in plasma, both with and without the presence of esterase inhibitors.
# The human plasma used was pooled from 50 donors, and was collected as whole blood from donors in
# the United States at an FDA-approved collection center, processed into plasma by centrifugation and
# The stability of the tested SCRAs, select metabolites and procaine control in pooled human plasma over
# inhibitors bis(4-nitrophenyl) phosphate (BNPP) and phenyl methyl sulphonyl fluoride (PMSF) is
# [6] = Metabolic stability, pooled human cryopreserved hepatocyte incubations; settings: human, hepatocytes; for CLint scaled at 0.5 µM: Intrinsic clearance, pHHeps, alternative hepatocyte cell density 99x10^6 hepatocytes per gram liver; for half-life at 0.5 µM: T1/2 (min), pHHeps 0.25 million cells mL^−1, 0.5 µM, 37 °C, n ≥ 3 ± SD
# [7] = test system: pooled human cryopreserved hepatocytes (pHHeps); experiment: as above; settings: for Predicted In Vivo Hepatic Clearance, CLH: from pHHeps CLint, well-stirred model with plasma fu, Q 21 mL min^−1 kg^−1
# [8] = 95 (Cumyl-PICA, 5F-Cumyl-PICA), 57 (AMB-4en-PICA), 109 (5F-APP-PICA, 5F-APP-PINACA, […]
# [9] = 10 µg mL^−1, read-out: PPB (%) (converted)
# [10] = plasma, read-out: Fraction Unbound (fu)
# [11] = pHLM, alternative microsomal scaling factor 32 mg microsomal protein per gram liver
# [12] = pHLM, alternative microsomal scaling factor 45 mg microsomal protein per gram liver
# [13] = pHLM, scaling factor 32 mg microsomal protein per gram liver
# [14] = pHLM, scaling factor 45 mg microsomal protein per gram liver
# [15] = Esterase Inhibitors, pH 7.4, BNPP and PMSF 500 µM each
# [16] = plasma, No Esterase Inhibitors, pH 7.4, pooled human plasma
# [17] = pHHeps, 99x10^6 hepatocytes per gram liver
compound,measurement,setting,value
"COC(=O)C(NC(=O)c1nn(CCCCF)c2ccccc12)C(C)(C)C (stereo not shown) [4F-MDMB-BINACA (4), methyl 2-[1-(4-fluorobutyl)-1H-indazole-3-carboxamido]-3,3-dimethylbutanoate]",chromatographic logD,[1],4.18
"COC(=O)[C@@H](NC(=O)c1nn(CCCCCF)c2ccccc12)C(C)C [5F-AMB-PINACA (10), methyl [1-(5-fluoropentyl)-1H-indazole-3-carbonyl]valinate]",CLint micr,"[2]; 95 (Cumyl-PICA, 5F-Cumyl-PICA), 73 (5F-AMB-PINACA), 109 (5F-APP-PICA, 5F-APP-PINACA, […]",670 µL/min/mg
same,t1/2,[2]; [8],1.0 min
same,chromatographic logD,[1],4.07
"COC(=O)C(NC(=O)c1cn(CCCCCF)c2ccccc12)C(C)(C)C (stereo not shown) [5F-MDMB-PICA (3), methyl 2-[1-(5-fluoropentyl)-1H-indole-3-carboxamido]-3,3-dimethylbutanoate]",chromatographic logD,[1],4.06
"C=CCCCn1cc(C(=O)N[C@H](C(=O)OC)C(C)(C)C)c2ccccc21 [(S)-MDMB-4en-PICA (12), methyl 3,3-dimethyl-2-[1-(pent-4-en-1-yl)-1H-indole-3-carboxamido]butanoate]","fraction unbound at 5 h, 10 µg mL^−1",[3]; [9],0.035
same,"fraction unbound at 5 h, 10 µg mL^−1",[3]; [10],0.035 ± 0.0031
same,"Predicted In Vivo Hepatic Clearance, CLH",[4],5.69 ± 0.61 mL/min/kg
same,"Hepatic extraction ratio, EH",[4]; from pHLM incubations,0.27 ± 0.029
same,CLint scaled at 0.5 µM,[4]; [11],137 mL/min/kg
same,CLint scaled at 0.5 µM,[4]; [12],192 mL/min/kg
same,half-life at 0.5 µM,[4],8.5 ± 1.3 min
same,"% parent compound remaining, Average","[4]; pHLM, 3 min",77.5%
same,"% parent compound remaining, Average","[4]; pHLM, 6 min",62.6%
same,"% parent compound remaining, Average","[4]; pHLM, 9 min",50.2%
same,"% parent compound remaining, Average","[4]; pHLM, 15 min",28.5%
same,"% parent compound remaining, Average","[4]; pHLM, 30 min",5.6%
same,"Microsomal Intrinsic Clearance, CLint micr",[4]; pHLM,0.166 ± 0.024 mL min^−1 mg Microsomal Protein^−1
same,"Hepatic extraction ratio, EH",[4]; [13],0.18 ± 0.022
same,"Predicted in vivo hepatic clearance, CLH",[4]; [13],3.88 mL/min/kg
same,"Hepatic extraction ratio, EH",[4]; [14],0.24 ± 0.027
same,"Predicted in vivo hepatic clearance, CLH",[4]; [14],5.07 ± 0.57 mL/min/kg
same,"remaining at 3 h, 5 µM",[5]; [15],89.4 ± 2.3%
same,"remaining at 3 h, 5 µM",[5]; [16],91.5 ± 8.6%
same,CLint scaled at 0.5 µM,[6],197 mL/min/kg
same,half-life at 0.5 µM,[6],37 ± 6.9 min
same,"Predicted In Vivo Hepatic Clearance, CLH",[7],5.46 ± 0.78 mL/min/kg
same,"Hepatic extraction ratio, EH",[7]; from pHHeps incubations,0.26 ± 0.037
same,"Hepatic extraction ratio, EH",[7]; [17],0.25
same,"Predicted in vivo hepatic clearance, CLH",[7]; [17],5.15 mL/min/kg
same,"% parent compound remaining, Average","[7]; pHHeps, 3 min",93.4%
same,"% parent compound remaining, Average","[7]; pHHeps, 6 min",83.7%
same,"% parent compound remaining, Average","[7]; pHHeps, 9 min",80.4%
same,"% parent compound remaining, Average","[7]; pHHeps, 15 min",74.0%
same,"% parent compound remaining, Average","[7]; pHHeps, 30 min",51.6%
same,"% parent compound remaining, Average","[7]; pHHeps, 45 min",34.2%
same,"% parent compound remaining, Average","[7]; pHHeps, 60 min",25.0%
"C=CCCCn1nc(C(=O)N[C@H](C(=O)OC)C(C)(C)C)c2ccccc21 [(S)-MDMB-4en-PINACA (5), methyl 3,3-dimethyl-2-[1-(pent-4-en-1-yl)-1H-indazole-3-carboxamido] butanoate]","fraction unbound at 5 h, 10 µg mL^−1",[3]; [9],0.01
same,"fraction unbound at 5 h, 10 µg mL^−1",[3]; [10],0.01 ± 0.0001
same,"Predicted In Vivo Hepatic Clearance, CLH",[4],2.66 ± 0.37 mL/min/kg
same,"Hepatic extraction ratio, EH",[4]; from pHLM incubations,0.13 ± 0.018
same,CLint scaled at 0.5 µM,[4]; [11],186 mL/min/kg
same,CLint scaled at 0.5 µM,[4]; [12],262 ± 42.3 mL/min/kg
same,half-life at 0.5 µM,[4],6.3 ± 1 min
same,"% parent compound remaining, Average","[4]; pHLM, 3 min",72.3%
same,"% parent compound remaining, Average","[4]; pHLM, 6 min",52.7%
same,"% parent compound remaining, Average","[4]; pHLM, 9 min",36.7%
same,"% parent compound remaining, Average","[4]; pHLM, 15 min",18.6%
same,"% parent compound remaining, Average","[4]; pHLM, 30 min",3.1%
same,"Microsomal Intrinsic Clearance, CLint micr",[4]; pHLM,0.226 ± 0.037 mL min^−1 mg Microsomal Protein^−1
same,"Hepatic extraction ratio, EH",[4]; [13],0.08 ± 0.012
same,"Predicted in vivo hepatic clearance, CLH",[4]; [13],1.71 mL/min/kg
same,"Hepatic extraction ratio, EH",[4]; [14],0.11 ± 0.016
same,"Predicted in vivo hepatic clearance, CLH",[4]; [14],2.32 ± 0.33 mL/min/kg
same,"remaining at 3 h, 5 µM","[5]; plasma, Esterase Inhibitors, pH 7.4, BNPP and PMSF 500 µM each",89 ± 3.3%
same,"remaining at 3 h, 5 µM",[5]; [16],94.8 ± 0.7%
same,CLint scaled at 0.5 µM,[6],632 mL/min/kg
same,half-life at 0.5 µM,[6],12 ± 2.6 min
same,"Predicted In Vivo Hepatic Clearance, CLH",[7],5.11 ± 0.89 mL/min/kg
same,"Hepatic extraction ratio, EH",[7]; from pHHeps incubations,0.24 ± 0.042
same,"Hepatic extraction ratio, EH",[7]; [17],0.23
same,"Predicted in vivo hepatic clearance, CLH",[7]; [17],4.82 mL/min/kg
same,"% parent compound remaining, Average","[7]; pHHeps, 3 min",79.7%
same,"% parent compound remaining, Average","[7]; pHHeps, 6 min",69.0%
same,"% parent compound remaining, Average","[7]; pHHeps, 9 min",56.7%
same,"% parent compound remaining, Average","[7]; pHHeps, 15 min",41.1%
same,"% parent compound remaining, Average","[7]; pHHeps, 30 min",17.1%
same,"% parent compound remaining, Average","[7]; pHHeps, 45 min",7.6%
same,"% parent compound remaining, Average","[7]; pHHeps, 60 min",3.4%
COC(=O)[C@@H](NC(=O)c1nn(Cc2ccc(F)cc2)c2ccccc12)C(C)(C)C [(S)-MDMB-FUBINACA (6)],"fraction unbound at 5 h, 10 µg mL^−1",[3]; [9],0.005
same,"fraction unbound at 5 h, 10 µg mL^−1",[3]; [10],0.005 ± 0.0008
same,"Predicted In Vivo Hepatic Clearance, CLH",[4],0.87 ± 0.18 mL/min/kg
same,"Hepatic extraction ratio, EH",[4]; from pHLM incubations,0.04 ± 0.009
same,CLint scaled at 0.5 µM,[4]; [11],111 mL/min/kg
same,CLint scaled at 0.5 µM,[4]; [12],156 mL/min/kg
same,half-life at 0.5 µM,[4],11 ± 2.4 min
same,"% parent compound remaining, Average","[4]; pHLM, 3 min",70.2%
same,"% parent compound remaining, Average","[4]; pHLM, 6 min",64.2%
same,"% parent compound remaining, Average","[4]; pHLM, 9 min",55.8%
same,"% parent compound remaining, Average","[4]; pHLM, 15 min",34.3%
same,"% parent compound remaining, Average","[4]; pHLM, 30 min",16.4%
same,"Microsomal Intrinsic Clearance, CLint micr",[4]; pHLM,0.135 ± 0.030 mL min^−1 mg Microsomal Protein^−1
same,"Hepatic extraction ratio, EH",[4]; [13],0.03 ± 0.006
same,"Predicted in vivo hepatic clearance, CLH",[4]; [13],0.54 ± 0.12 mL/min/kg
same,"Hepatic extraction ratio, EH",[4]; [14],0.04 ± 0.008
same,"Predicted in vivo hepatic clearance, CLH",[4]; [14],0.75 ± 0.16 mL/min/kg
same,"remaining at 3 h, 5 µM",[5]; [15],91.6 ± 2.2%
same,"remaining at 3 h, 5 µM",[5]; [16],94.2 ± 6.3%
same,CLint scaled at 0.5 µM,[6],275 mL/min/kg
same,half-life at 0.5 µM,[6],26 ± 5 min
same,"Predicted In Vivo Hepatic Clearance, CLH",[7],1.39 mL/min/kg and 1.39 ± 0.27 mL/min/kg
same,"Hepatic extraction ratio, EH",[7]; from pHHeps incubations,0.07 and 0.07 ± 0.013
same,"Hepatic extraction ratio, EH",[7]; [17],0.06 ± 0.012
same,"Predicted in vivo hepatic clearance, CLH",[7]; [17],1.29 ± 0.25 mL/min/kg
same,"% parent compound remaining, Average","[7]; pHHeps, 3 min",90.3%
same,"% parent compound remaining, Average","[7]; pHHeps, 6 min",73.3%
same,"% parent compound remaining, Average","[7]; pHHeps, 9 min",80.1%
same,"% parent compound remaining, Average","[7]; pHHeps, 15 min",73.3%
same,"% parent compound remaining, Average","[7]; pHHeps, 30 min",38.8%
same,"% parent compound remaining, Average","[7]; pHHeps, 45 min",17.3%
same,"% parent compound remaining, Average","[7]; pHHeps, 60 min",9.1%
"CC(C)C(NC(=O)c1nn(CC2CCCCC2)c2ccccc12)C(N)=O (stereo not shown) [AB-[…] (11), N-[1-amino-3-methyl-1-oxobutan-2-yl]-1-(cyclohexylmethyl)-1H-indazole-3-carboxamide]",chromatographic logD,[1],3.71
"C=CCCCn1cc(C(=O)NC(C(=O)OC)C(C)C)c2ccccc21 (stereo not shown) [AMB-4en-PICA (7), methyl 3-methyl-2-[(1-pent-4-enylindole-3-carbonyl)amino] butanoate]",t1/2,[2]; [8],2.1 min
same,CLint,[2]; 57 (AMB-4en-PICA),291 mL/min/kg
same,chromatographic logD,[1],3.97
"COC(=O)[C@@H](NC(=O)c1cn(CC2CCCCC2)c2ccccc12)C(C)C [AMB-CHMICA (9), methyl [1-(cyclohexylmethyl)-1H-indole-3-carbonyl]valinate]",chromatographic logD,[1],4.77
"COC(=O)[C@@H](NC(=O)c1nn(Cc2ccc(F)cc2)c2ccccc12)C(C)C [AMB-FUBINACA (1), methyl [1-(4-fluorobenzyl)-1H-indazole-3-carbonyl]valinate]",chromatographic logD,[1],4.28
"C=CCCCn1cc(C(=O)NC(C(=O)OC)C(C)(C)C)c2ccccc21 (stereo not shown) [MDMB-4en-PICA (12), methyl 3,3-dimethyl-2-[1-(pent-4-en-1-yl)-1H-indole-3-carboxamido]butanoate]",chromatographic logD,[1],4.4
"methyl 2-[1-(5-fluoropentyl)-1H-indazole-3-carboxamido]-3,3-dimethylbutanoate [MDMB-FUBINACA (6)]",Experimental Log D7.4,"[1]; CHI log D, determined for the (S)-enantiomer, n = 1",4.69
